Positions count from the first letter of the chain named. Read-outs that look alike come from different tables or passages of the source. Values belong to the molecule of their own block, whether it stands above or below them.
Legend:
human Hv1 channel [1] = molecular target: T1, human Hv1 channel (Homo sapiens, UniProt Q96D96); test: Inside-out patch clamp of proton currents, Xenopus oocytes expressing human Hv1; format: cell-based; settings: for Inhibition of Hv1 proton current compared with 2GBI: 200 µM intracellular, inside-out patch, +120 mV
T1 sequence (Q96D96 1-273): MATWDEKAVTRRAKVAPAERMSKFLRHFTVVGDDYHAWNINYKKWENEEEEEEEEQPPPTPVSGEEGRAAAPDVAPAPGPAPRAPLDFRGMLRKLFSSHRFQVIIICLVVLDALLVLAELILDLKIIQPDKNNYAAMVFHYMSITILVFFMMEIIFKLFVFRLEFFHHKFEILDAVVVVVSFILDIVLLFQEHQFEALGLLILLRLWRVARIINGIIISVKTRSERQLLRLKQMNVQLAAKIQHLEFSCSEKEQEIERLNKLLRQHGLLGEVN

Hv1 F150A = molecular target: T2, Hv1 F150A (Homo sapiens, UniProt Q96D96, F150A); test: Inside-out patch clamp, inhibition of Hv1 F150A mutant; format: cell-based; settings: 1 µM 2GBI, 500 µM guanidinium, 7.9 mM magnesium, intracellular
T2 sequence (Q96D96 1-273 F150A): T1 sequence (Q96D96 1-273) with F150A

human Hv1 channel [2] = molecular target: T1, human Hv1 channel; settings: cited from earlier work; for Inhibition of Hv1 channel by intracellular quaternary ammonium ions: ref Musset et al., 2011, Ramsey et al., 2006
[3] = tested on: F150A-WT linked Hv1 heterodimers; test: Inside-out patch clamp, partial block of linked F150A-WT Hv1 heterodimers; format: cell-based, human; settings: 2 µM 2GBI, +120 mV

SMILES: N=C(N)N [Compound 1, Guanidine]
Concentration range effective at inhibiting proton currents (human Hv1 channel [1]): millimolar concentration range
Difference in binding affinity between F150A and wild type channels (Hv1 F150A): much smaller difference
Inhibition of Hv1 and effect on activation curve (human Hv1 channel [2]; ref Tombola et al., 2008): inhibit Hv1 without shifting the channel’s activation curve

SMILES: N=C(N)Nc1nc2ccccc2[nH]1 [Compound 7, 2-guanidinobenzimidazole]
Total inhibition of the initial current [3]: ~ 50%
Estimated fraction of wild type subunits blocked ([3]; estimated from dissociation constants of homodimers): ~6%

SMILES: CC[N+](CC)(CC)CC [TEA^+, tetraethylammonium]
Inhibition of Hv1 channel by intracellular quaternary ammonium ions (human Hv1 channel [2]): do not inhibit

SMILES: C[N+](C)(C)C [TMA^+]
Inhibition of Hv1 channel by intracellular quaternary ammonium ions (human Hv1 channel [2]): do not inhibit

Other lines, results leading:

Inhibition of Hv1 proton current compared with 2GBI (human Hv1 channel [1]): not as effective as 2GBI
SMILES: CN(C)C(=N)N=C(N)N [Compound 8, metformin, reference compound]

Inhibition of Hv1 proton current compared with 2GBI (human Hv1 channel [1]): not as effective as 2GBI
SMILES: Cc1nc(NC(=N)N)nc2ccccc12 [Compound 9, 2-guanidino-4-methylquinazoline]

Inhibition of Hv1 proton current compared with 2GBI (human Hv1 channel [1]): not as effective as 2GBI
SMILES: CC(=O)N(C(=N)NC(=N)N)c1ccccc1 [Compound 10, N-(guanidino-imino-methyl)-N-phenylacetamide]

IC50 (human Hv1 channel [1]): ~9 mM
SMILES: N=C(N)Nc1nc2ccccc2o1 [Compound 11, 1-(1,3-benzoxazol-2-yl)guanidine]

Inhibition of Hv1 proton current compared with 2GBI (human Hv1 channel [1]): almost as effectively as 2GBI
SMILES: N=C(N)Nc1nc2ccccc2s1 [Compound 12, 1-(1,3-benzothiazol-2-yl)guanidine]

IC50 (human Hv1 channel [1]; wild type Hv1, GBOZ curve extrapolated above solubility limit): ~9 mM
Difference in binding affinity between F150A and wild type channels (Hv1 F150A): no difference
SMILES: [Mg+2] [magnesium, reference compound]
